Laboratory results published in ChEMBL document CHEMBL5653627 (J Neurochem, 2017).
Active and inactive are the calls of the source. The calls are words filed in the database; no cut-off is given here.

Experiments:
Angiopoietin-1 receptor = Angiopoietin-1 receptor (Homo sapiens, UniProt Q02763); test: Inhibition of TIE2 autophosphorylation in human HUVEC cells by Western blot analysis; assay type: cell-based
[1] = target: Epithelial discoidin domain-containing receptor 1 (Homo sapiens, UniProt Q08345); test: Binding affinity to DDR1 (unknown origin) assessed as dissociation constant by KINOME scan assay
SMA-560 [2] = test: In vivo inhibition of TIE-2 in VM/Dk mouse xenografted with mouse SMA-560 cells assessed as decrease in TIE-2 expression in brain blood vessels at 100 mg/kg,po daily with 12 Gy irradition after 2days of treatment initiation by immunohistochemistry analysis; assay type: functional, organism-based
SMA-560 [3] = test: Cytotoxicity against mouse SMA-560 cells assessed as reduction in metabolic activity at 0.001 to 100 uM incubated for 72 hrs by MTT assay; assay type: functional, cell-based; settings: dose 0.001-100 µM
SMA-560 [4] = test: Induction of cell cycle arrest in mouse SMA-560 cells assessed as accumulation at G2/M phase at 0.1 uM incubated for 72 hrs by propidium iodide/RNase staining based flow cytomtery (Rvb= 25%); assay type: functional
SMA-497 [5] = test: Induction of cell cycle arrest in mouse SMA-497 cells assessed as accumulation at S phase at 0.1 uM incubated for 72 hrs by propidium iodide/RNase staining based flow cytomtery (Rvb= 8%); assay type: functional
GL261 = test: Cytotoxicity against mouse GL261 cells assessed as reduction in metabolic activity at 0.001 to 100 uM incubated for 72 hrs by MTT assay; assay type: functional, cell-based; settings: dose 0.001-100 µM
SMA-560 [6] = test: Antitumor activity against mouse SMA-560 cells xenografted in VM/Dk mouse assessed as tumor cell proliferation at 100 mg/kg,po daily by Ki67 staining based immunohistochemistry analysis; assay type: functional, organism-based
SMA-497 [7] = test: Anti-clonogenicic activity in mouse SMA-497 cells assessed as reduction in colony formation at 0.001 to 10 uM and measured after 10 days by MTT based clonogenic survival assay; assay type: functional, cell-based; settings: dose 0.001-10 µM, time 10.0 day
SMA-497 [8] = test: Induction of apoptosis in mouse SMA-497 cells assessed as late apoptotic cells at 0.1 uM incubated for 72 hrs by Annexin V-FITC/PI staining based flow cytometric analysis (reference value: 1.86%); assay type: functional
SMA-497 [9] = test: Induction of cell cycle arrest in mouse SMA-497 cells assessed as accumulation at sub G1 phase at 0.1 uM incubated for 72 hrs by propidium iodide/RNase staining based flow cytomtery (Rvb= 2%); assay type: functional
SMA-497 [10] = test: Antitumor activity against mouse SMA-497 cells xenografted in VM/Dk mouse assessed as decrease in number of CD31-positive intra-tumoral vessels in tumor at 100 mg/kg,po daily with 12 Gy irradition after 2days of treatment initiation by immunohistochemistry analysis; assay type: functional, organism-based
SMA-497 [11] = test: Antitumor activity against mouse SMA-497 cells xenografted in VM/Dk mouse assessed as increase in number of tumor-infiltrating CD11b positive monocytes/microglia in tumor at 100 mg/kg,po daily with 12 Gy irradition after 2days of treatment initiation by immunohistochemistry analysis; assay type: functional, organism-based
SMA-497 [12] = test: Induction of cell cycle arrest in mouse SMA-497 cells assessed as accumulation at G2/M phase at 0.1 uM incubated for 72 hrs by propidium iodide/RNase staining based flow cytomtery (Rvb= 14%); assay type: functional
SMA-497 [13] = test: Antitumor activity against mouse SMA-497 cells xenografted in VM/Dk mouse assessed as decrease in tumor cell proliferation at 100 mg/kg,po daily with 12 Gy irradition after 2days of treatment initiation by Ki67 staining based immunohistochemistry analysis; assay type: functional, organism-based

Sequence of Epithelial discoidin domain-containing receptor 1 (Q08345 whole entry, the tested form may be a part): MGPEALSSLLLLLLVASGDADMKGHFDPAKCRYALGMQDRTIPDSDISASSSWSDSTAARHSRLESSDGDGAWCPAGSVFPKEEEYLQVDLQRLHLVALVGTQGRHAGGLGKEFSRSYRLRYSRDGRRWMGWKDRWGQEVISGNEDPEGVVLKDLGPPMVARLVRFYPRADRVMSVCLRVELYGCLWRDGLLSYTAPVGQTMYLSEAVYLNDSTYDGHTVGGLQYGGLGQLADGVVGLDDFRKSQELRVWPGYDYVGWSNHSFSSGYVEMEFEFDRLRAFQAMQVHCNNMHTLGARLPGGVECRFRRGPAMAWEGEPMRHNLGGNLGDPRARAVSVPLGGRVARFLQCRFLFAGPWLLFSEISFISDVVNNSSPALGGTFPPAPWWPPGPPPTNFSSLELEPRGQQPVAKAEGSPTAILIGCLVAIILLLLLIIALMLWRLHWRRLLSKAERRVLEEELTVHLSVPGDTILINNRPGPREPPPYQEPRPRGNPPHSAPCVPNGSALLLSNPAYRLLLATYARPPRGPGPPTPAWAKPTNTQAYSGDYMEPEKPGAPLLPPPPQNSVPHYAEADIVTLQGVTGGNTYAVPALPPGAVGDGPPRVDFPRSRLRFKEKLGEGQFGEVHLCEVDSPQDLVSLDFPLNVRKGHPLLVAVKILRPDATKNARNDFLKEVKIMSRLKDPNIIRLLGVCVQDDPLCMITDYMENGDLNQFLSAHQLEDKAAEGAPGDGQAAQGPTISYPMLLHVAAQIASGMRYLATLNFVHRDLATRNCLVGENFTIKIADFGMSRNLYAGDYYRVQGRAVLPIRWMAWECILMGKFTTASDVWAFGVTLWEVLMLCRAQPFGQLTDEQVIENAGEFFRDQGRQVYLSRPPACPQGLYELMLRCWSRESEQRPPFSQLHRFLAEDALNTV
Sequence of Angiopoietin-1 receptor (Q02763 whole entry, the tested form may be a part): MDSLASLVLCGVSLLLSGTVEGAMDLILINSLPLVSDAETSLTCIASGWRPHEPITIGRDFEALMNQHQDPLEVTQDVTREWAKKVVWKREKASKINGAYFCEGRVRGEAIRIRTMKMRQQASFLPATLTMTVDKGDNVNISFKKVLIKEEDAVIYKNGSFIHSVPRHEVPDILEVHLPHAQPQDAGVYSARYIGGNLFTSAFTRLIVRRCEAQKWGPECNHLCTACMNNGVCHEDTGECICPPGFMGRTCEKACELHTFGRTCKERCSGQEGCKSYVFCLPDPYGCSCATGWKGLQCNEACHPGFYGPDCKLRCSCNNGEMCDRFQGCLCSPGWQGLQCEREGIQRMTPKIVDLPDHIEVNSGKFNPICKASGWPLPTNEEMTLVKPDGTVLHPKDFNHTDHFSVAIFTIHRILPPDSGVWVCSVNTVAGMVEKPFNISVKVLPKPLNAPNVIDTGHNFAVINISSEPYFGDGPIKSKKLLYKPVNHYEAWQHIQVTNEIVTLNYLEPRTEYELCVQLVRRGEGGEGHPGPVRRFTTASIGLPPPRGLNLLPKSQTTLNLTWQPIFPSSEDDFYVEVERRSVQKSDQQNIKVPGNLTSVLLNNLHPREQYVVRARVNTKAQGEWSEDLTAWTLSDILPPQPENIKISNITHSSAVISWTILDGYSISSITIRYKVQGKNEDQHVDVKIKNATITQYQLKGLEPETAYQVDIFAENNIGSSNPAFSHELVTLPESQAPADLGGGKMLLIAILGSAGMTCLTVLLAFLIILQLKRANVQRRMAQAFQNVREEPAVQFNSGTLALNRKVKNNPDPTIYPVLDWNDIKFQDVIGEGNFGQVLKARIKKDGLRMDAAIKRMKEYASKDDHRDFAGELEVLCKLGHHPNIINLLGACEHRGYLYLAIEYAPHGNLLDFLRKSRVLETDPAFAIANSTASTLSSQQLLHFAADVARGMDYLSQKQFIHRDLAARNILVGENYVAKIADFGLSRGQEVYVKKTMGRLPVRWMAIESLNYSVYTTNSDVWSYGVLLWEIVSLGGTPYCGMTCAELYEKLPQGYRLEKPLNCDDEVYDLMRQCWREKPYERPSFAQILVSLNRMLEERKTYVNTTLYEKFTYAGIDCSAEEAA

Cc1cc(C)c(-n2ccn3nc(-c4cccnc4)cc23)cc1NC(=O)c1cc(C#N)cc(S(F)(F)(F)(F)F)c1 [BAY-826]
EC50 (Angiopoietin-1 receptor): 1.3 nM
Kd [1]: 0.4 nM
inhibition (SMA-560 [2]): Active
Activity (SMA-560 [3]): inactive
Activity (SMA-560 [4]): 28%
Activity (SMA-497 [5]): 11%
Activity (GL261): inactive
Activity (SMA-560 [6]): inactive
Activity (SMA-497 [7]): inactive
Activity (SMA-497 [8]): 0.3%
Activity (SMA-497 [9]): 4%
Activity (SMA-497 [10]): Active
Activity (SMA-497 [11]): Active
Activity (SMA-497 [12]): 10%
Activity (SMA-497 [13]): Active
